According to a melting point compilation (Tetko et al.; mined from patent text by program, amines drawn as free bases though some values may be those of a salt):
Non-standard residues stand in square brackets, D forms with d. Residues, ends and D or L forms follow the SMILES beside them. ξ: configuration not given here. *: point of attachment. Boc = CC(C)(C)OC(=O)*; ξA = CC(N)C(=O)O; NHNH2 = NN*

Structure (SMILES)	melting point [°C]
N#Cc1nc2cc3c(cc2[nH]1)OC(F)(Cl)C(F)(Cl)O3 (stereo not drawn)	> 230
CC1=CC=C[C@@H](O)[C@H]1O	56 to 57
O=[N+]([O-])c1ccc(F)c(I)c1F	46.1 to 47.5
FC(F)C(F)(F)Sc1nc(-c2ccccc2)c(-c2cccnc2)[nH]1	153 to 154
Cc1ccc(S(=O)(=O)N[C@@H](C)C(=O)N[C@@H](Cc2ccccc2)C(=O)OCc2ccccc2)cc1	109 to 110
CC(C)C/C(=C\F)CN1C(=O)c2ccccc2C1=O	57 to 60
S=C(NCCc1cccc(Cl)c1)Nc1nc2ccccc2[nH]1	171 to 177
O=c1c2cc(Br)ccc2ncn1Cc1cccnc1	162 to 164
CCCC(C)(CCl)c1cc(Cl)nnc1Cl (stereo not drawn)	68 to 69
O=c1oc2ccccc2n1-c1ccccc1[N+](=O)[O-]	153 to 155
N#Cc1c(N2CCCCC2)cc(-c2ccc3ccc4cccc5ccc2c3c45)c2c1C(=O)c1ccccc1-2	180 to 182
N#Cc1cnc2cnc(F)cc2c1Nc1ccc(Cl)cc1Cl	206 to 208
CS(=O)(=O)Oc1ccc(-n2nc(C#N)cc2-c2ccc(S(C)(=O)=O)cc2)cc1	195 to 196
O=C(Oc1ccccc1)C(=C1NCCCS1)[N+](=O)[O-]	100 to 102
CC(C)(C)c1ccc(C2(CN)CC2)cc1	39 to 41
COC(=O)CCCC#Cc1cc(Cl)ccc1NS(=O)(=O)c1cn(C)cn1	76 to 79
N#Cc1ccc(Nn2cnnc2)cc1-c1ccc(F)cc1	231 to 234
CCOc1nn(Cc2ccc(OCc3ccc(-c4ccccc4)cn3)cc2)cc1CCC(=O)O	127 to 128
CCSc1ccc(C(=O)O)c(C(F)(F)F)c1	134
Cc1cc(Oc2ccnc(OC(F)F)c2)nc(Oc2ccnc(OC(F)F)c2)c1	60 to 65
CS(=O)(=O)Oc1ccc(Oc2ccccc2)cc1CC(=O)O	121
C[C@@]1(C=O)S[C@@H]2CC(=O)N2[C@H]1C(=O)OC(c1ccccc1)c1ccccc1	112 to 113
CCOc1cnccc1C#N	56 to 57
CC(C)(C)OC(=O)NCC(C(=O)OCc1ccccc1)c1ccccc1 (stereo not drawn)	58 to 59
C=Cc1ccc(S(=O)(=O)On2nnc3ccc(C=C)cc32)cc1	85 to 87

Structure (SMILES)	melting point [°C]
COc1ccc(Cn2nc(-c3ccc(S(C)=O)cc3)c(-c3ccc(F)cc3)cc2=O)cc1 (stereo not drawn)	81.3 to 81.5
CCOP(=S)(OCC)SC(=CC(=O)c1cccc(Br)c1)C(=O)O	107 to 111
CCCCC(Cc1ccc(OCCNC(=O)c2ccc(-c3cccc(OC)c3)cc2)cc1)C(=O)O (stereo not drawn)	107 to 109
CCCCCCCCCCCCCCc1ccc(OCC(CO)OC)cc1 (stereo not drawn)	43 to 45
C=CCn1nc(-c2ccc(S(C)(=O)=O)cc2)c(-c2ccc(F)cc2)c1C(F)(F)F	116 to 119
CC(NC(Nc1cccnc1)=C(C#N)S(=O)(=O)c1ccc(Cl)cc1)C(C)(C)C (stereo not drawn)	172 to 174
O=C(Cc1ccccc1)c1ccncc1	94 to 96
CCN(CC)c1ccc(C=CC2=NC(C#N)=C(C#N)N=CC2)cc1	> 300
CCOc1cccnc1C(=O)NCCNC(=O)OC(C)(C)C	125 to 126
CC(C)(C)c1cccc(C[C@@H]2N[C@@H](c3ccccc3)[C@@H](c3ccccc3)OC2=O)c1	136 to 137
CCOC(=O)CN(CP(=S)(Oc1ccccc1)Oc1ccccc1)C(=O)C(F)(F)F	50 to 52
CC(C)(C)OC(=O)C=Cc1ccc(-c2ccc3ncnc(Nc4ccc(OCc5cccc(F)c5)c(Cl)c4)c3c2)cc1	212
CC(NC(=O)CNC(=O)CNC(=O)CNC(=O)OC(C)(C)C)C(=O)NCC(=O)NN (stereo not drawn) (Boc-GGG[ξA]G-NHNH2)	221 to 223
OC(c1ccc(Cl)cc1)(c1ccc(Cl)cc1)c1ccns1	118 to 120
Cc1nc[nH]c1CSCCNC(=N)NCC(C)SCc1[nH]cnc1C (stereo not drawn)	173 to 175
O=C1NCCN1S(=O)(=O)c1ccc(F)cc1	183 to 185
CCSc1ccc2nc(C(F)(F)F)c(S(N)(=O)=O)n2n1	208 to 210
CC(C)(C)OC(=O)c1ncn2c1C1CCCN1C(=O)c1ncccc1-2 (stereo not drawn)	230 to 231
Oc1cccc(CCCCn2ccnc2)c1	133 to 134
COC(=O)COc1ccc(C(=O)CN(C)C(=O)OCc2ccccc2)cc1OCC(=O)OC	56 to 59
COC(=O)C(Cc1ccccc1)NC(=O)C(CC(=O)O)NC(=O)CC(C)=O (stereo not drawn)	118 to 121
CCOC(=O)c1cc2c3ccccc3n(CCCc3ccccc3)c2cn1	140 to 142
O=C(NCCc1ccccc1)c1ccccc1-c1ccccc1CNS(=O)(=O)c1cccc(F)c1	153
C[C@@](O)(C(=O)Nc1ccc(S(=O)(=O)c2ccccc2)cc1F)C(F)(F)F	121 to 122

Further lines, results first:

melting point [°C]	Structure (SMILES)
99 to 100	CCOCCOC(=O)C1=C(C)NC(CO)=C(C(=O)OCC)C1c1cccc([N+](=O)[O-])c1 (stereo not drawn)
111 to 113	COC(=O)Cc1ccc(NC(=O)c2sc3ccc(OC)cc3c2OC(C)C)cc1
250 to 251	Cc1ccc(N2C(=O)c3ccccc3NC2c2ccc(=O)[nH]c2)cc1C(F)(F)F (stereo not drawn)
164 to 165	Cc1cc(OCc2ccc(-c3ccc(C(F)(F)F)cc3)nc2C)ccc1OC(C)(C)C(=O)O
131 to 132	CCOC(=O)C(C#N)=Cc1c(Cl)n(C)c2ccccc12
124 to 126	COc1ccc(-c2cc(=O)n(C)c(OC(C)C)n2)cc1OC
145 to 146	Cc1cc2cnn(-c3ccccc3)c2nc1OCc1ncnn1C
129 to 133	CCCCCC(C)C(C)c1cc(O)c(CN2CCN(C)CC2)c(O)c1 (stereo not drawn)
158 to 159	Cc1cc(-c2oncc2CCC(=O)O)ccc1Cl
162 to 164	CCOc1c(C(=O)O)sc2ccc(OC)cc12
164 to 167	Clc1ccc(-c2cc(C3CCN(Cc4ccccc4)CC3)n[nH]2)cc1
166 to 168	NC(=O)c1ccc(OC2CCN(Cc3ccccc3)CC2)cc1
193 to 197	COc1ccc(CC2CCN(C(=O)C(=O)Nc3ccc4[nH]c(=O)oc4c3)CC2)cc1
109 to 112	Cc1nc2ccc3c(c2o1)OC(CN1CCCCC1)CO3 (stereo not drawn)
162 to 163	CCCc1nc2c(N)nc3c(c2n1CCCCCC(=O)N1CCOCC1)CCCC3
284 to 287	N#Cc1cc2c(Nc3cccc(Cl)c3)ncnc2[nH]1
90 to 91	C[C@@H](NC(=O)c1cccc(-c2ccc(Cl)cc2)c1)[C@](O)(Cn1cncn1)c1ccc(F)cc1F
71 to 73	CCOC(=O)c1sc(Oc2ccc(Cl)cc2Cl)nc1C
105 to 108	COC(=O)C=C(OC)c1ccccc1OCc1csc(-c2ccc(F)cc2)n1
183 to 184	CCOC(=O)c1c(CS(=O)(=O)c2nccn2C)nc2cc(OC)c(OC)cc2c1-c1ccc(OC)c(OC)c1
198 to 200	O=C(Nc1cc2ncc(CN3CCCC3)cc2cc1F)c1ccc(-c2ccc(F)cc2)cc1
104 to 107	CCOC(=O)C(=CNc1nonc1C)C(=O)c1cc(F)c(F)cc1F
68 to 68.6	CCOC(=O)C(C)Oc1ccc(N(C)c2nc3cc(Cl)ccc3o2)cc1 (stereo not drawn)
195 to 197	Clc1cccc2c1Sc1ccccc1N2C1=CCCN1C1=NCCC1
277 to 278	CC(C)(C)c1cc(C(=O)Nc2ccc([N+](=O)[O-])cc2)cc(C(C)(C)C)c1O

melting point [°C]	Structure (SMILES)
255 to 256	CON=C1CN(c2cc3c(cc2F)c(=O)c(C(=O)O)cn3C2CC2)CC12CN(C(=O)OC(C)(C)C)C2
114	COc1ccc(S(=O)(=O)C2(C(=O)O)CCN(Cc3ccc(OCCN4CCCCC4)cc3)CC2)cc1
128	O=S1(=O)c2cccc3cccc(c23)N1CCCN1CCN(c2ccccc2O)CC1
115 to 116	COC(=O)CN(C1(C(=O)C2CCCCC2)C=C(Cl)C=CC1)S(=O)(=O)c1ccc(OC)cc1 (stereo not drawn)
169 to 171	Cc1cccc(Cl)c1NC(=O)N=C1NCCN1
85	Cc1cc(-n2ccnc2)c2cccc(OCc3c(Cl)ccc(S(=O)(=O)N4CCC[C@H]4C(=O)NCCCCCN(C)C)c3Cl)c2n1
167 to 168	COc1cc(O)cc2cc(-c3ccc(O)cc3)oc12
125 to 126	Cc1nc(C(=O)Nc2ccc3[nH]cc(C4CCN(C)CC4)c3n2)c(C)s1
162 to 166	Cc1ccc(-c2ccc3c(c2)C=C(S(=O)(=O)Cl)CCO3)cc1
150 to 151	CN1C(=O)CC[C@]2(C)c3ccc(-c4c(F)c(F)c(Cl)c(F)c4F)cc3CC[C@@H]12
110	O=CNCc1c(Cl)ccc2cc(Cl)cnc12
59 to 60	O=C(C=C1CCCCN1)c1ccccc1
102 to 104	CCOc1nc(SC)nc(N2CCS(=O)CC2)c1[N+](=O)[O-]
187 to 189	O=C1C(Cc2ccccc2)NC(=S)N1c1nc(C(F)(F)F)cs1 (stereo not drawn)
130 to 140	CCCc1nn(C)c2c(=O)[nH]c(-c3cc(C(O)CN4CCNCC4)ccc3OCC)nc12 (stereo not drawn)
197 to 199	CCOC(=O)c1sc(NC(=O)c2cc(Br)ccc2O)nc1-c1ccccc1
62 to 65	O=C(Nc1ccc(C(F)(F)F)cc1)Nc1ccc(S(=O)(=O)NCCN2CCOCC2)cc1
48 to 50	Cc1cc(CCC2CCC(COc3ccc(C4=NCCO4)cc3)CC2)on1 (stereo not drawn)
> 300	CCOC(=O)c1c[nH]c2cc(C(=O)NCCc3ccc(Cl)cc3)nn2c1=O
184 to 185	CC(C)(C)OC(=O)C(C1NC(C(=O)OCc2ccccc2)C2(CCN(c3ccccc3)CC2)S1)N1C(=O)c2ccccc2C1=O (stereo not drawn)
126	COc1ccc2cccc3c2c1CCC3CNC(C)=O (stereo not drawn)
148 to 150	CC(=O)C1CCC2C3CCC4=CC(=O)C=CC4(C)C3CCC12CO[N+](=O)[O-] (stereo not drawn)
> 260	COc1ccc(C(=O)Nc2c(Cl)cncc2Cl)c2c1oc1ccncc12
141 to 143	CC(C)c1nc2c(c(-c3ccc(F)cc3)c1CO)CCC2(C)C
